{"source": "paper PMC10969810", "about": "“Green Extraction Strategy Using Bio-Based Aqueous Biphasic Systems for Polyphenol Valorization from Grape By-Product” (Foods, 2024)", "key": {"[1]": {"experiment": "Partition of polyphenols in cholinium salt/IL + PPG400 + water aqueous biphasic systems", "format": "physicochemical", "conditions": "for increase in RE by increasing the TLL: TLL 56.88 to 101.43, polyphenol content 2.5 g per L of ABS, pH~6, 25 °C", "experimental": "Considering previously established phase diagrams of ABSs, ternary mixtures within the biphasic region were prepared, containing 20 wt% salt/IL + 50 wt% PPG400 + 30 wt% of H2O +10 μL of polyphenol solution. The polyphenol solutions were prepared in 80 vol% ethanol, with concentrations of circa 2500 mg L^−1 for each compound. […] The selected compositions of ABSs and corresponding TLLs are given in the Supplementary Materials.\nEach ABS was prepared in 1.5 mL microcentrifuge tubes by adding the appropriate amount of constituents to achieve a final weight of 1 g. All systems were vigorously agitated (Reax Top, Heidolph, Schwabach, Germany) and left for 2 h at 25 °C in a thermo-shaker incubator (ALEMADR-MSC, Colo Lab Experts, Novo Mesto, Slovenia). Following 5 min of centrifugation at 5000× g rpm (LLG-uniCFUGE 5, Meckenheim, Germany), the phases were carefully separated, and their weights and volumes were measured. After appropriate dilution and filtration using syringe filters (0.45 μm), the contents of polyphenols in the phases were quantified by high-performance liquid chromatography (HPLC), as described in Section 2.5.\nThe logarithmic distribution coefficients (logD) of the polyphenols were calculated as the ratio of the equilibrium concentration of each polyphenol in the PPG400-rich and IL/salt-rich phases, as follows:(1) logD=log [Polyphenol]PPG400-phase/[Polyphenol]IL/salt-phase.\nThe selectivities (S) with respect to gallic acid were calculated according to the following equation:(4) SGA/Polyphenol=DGA/DPolyphenol where the subscript “Polyphenol” stands for resveratrol or quercetin.\nThe quantification of polyphenols was carried out using HPLC (Knauer, Berlin, Germany), which includes a DAD detector and an Ascentis C18 (SUPELCO), Darmstadt, Germany, column with a particle size of 5 µm and dimensions 250 mm × 4.6 mm. Chromatographic separation of the target polyphenols occurred at a constant flow rate of 1 mL min^−1, the injection volume for all samples was 20 μL, and the temperature of the column was fixed at 45 °C, with 10% acetonitrile (v/v) as mobile phase A and pure acetonitrile as mobile phase B. For partition studies, isocratic conditions were used for the determination of each compound (A:B = 60:40). Quantification in a complex sample after extraction from the real sample was achieved using a gradient mode, varying the mobile phase from 100% A to 100% B for 30 min."}, "[2]": {"experiment": "Recovery of polyphenols from grape stem extract with [Ch][DHP]/PPG400 ABS", "format": "physicochemical", "conditions": "40 wt% PPG400 + 25 wt% [Ch][DHP], 25 °C, pH ~6, TLL ~101, ~5 mg extract per g ABS", "experimental": "Grapes collected from Quinta das Carvalhas, Pinhao (Regiao Demarcada do Douro, Portugal), were first separated into stems, seeds, and skins. All samples were freeze-dried, ground into powder, and stored in a desiccator. Two grams of the grape stem powder was mixed with 100 mL of a water:ethanol mixture (1:1, v:v), followed by stirring for 2 h and sonication for 5 min. The sample was centrifuged at 10,000× g rpm for 15 min, and the pellet was re-extracted. The supernatant was collected, and the solvent was evaporated under vacuum using a rotary evaporator at 40 °C. […]\nThe quantification of polyphenols was carried out using HPLC (Knauer, Berlin, Germany), which includes a DAD detector and an Ascentis C18 (SUPELCO), Darmstadt, Germany, column with a particle size of 5 µm and dimensions 250 mm × 4.6 mm. […] Quantification in a complex sample after extraction from the real sample was achieved using a gradient mode, varying the mobile phase from 100% A to 100% B for 30 min.\nGuided by the results from the optimization studies, polyphenols were extracted from grape stem extract with specific conditions in mind based on previously determined extraction parameters. […] The RE for GA towards the [Ch][DHP] phase was 78.64%, and quercetin was not detected in the grape stem extract. […]"}, "[3]": {"experiment": "Solubility determination (UV spectroscopy of saturated solutions)", "format": "physicochemical", "conditions": "thermodynamic from solid", "experimental": "Quantification was carried out using calibration curves (R^2 > 0.99 in all cases) for each analyzed compound within the concentration range of 2.5 to 50 mg L^-1."}, "[4]": {"conditions": "cited from earlier work"}, "[5]": {"design": "method as in doi:10.2478/s11696-013-0417-6, doi:10.1016/0016-7037(88)90089-0", "conditions": "cited from earlier work"}, "[6]": {"design": "method as in doi:10.1016/j.afres.2023.100381", "conditions": "ABSs of [Ch]Cl and different surfactants, rice husk hydrolysate; cited from earlier work"}, "[7]": {"conditions": "[Ch][DHP]/PPG400 ABS, tie line ~101, lowest phase volume ratio (0.20), 25 °C"}}, "note": "“And” between values parts separate entries of the source, which are not always exact repeats. Equal entries are not always repeated. Where two headings read alike, the source gives them in different places."}
{"compound": "O=C(O)c1cc(O)c(O)c(O)c1", "note": "[GA, gallic acid]", "values": [{"measurement": "recovery efficiency (RE) toward the IL-rich phase", "setting": "[1]; [Ch][DHP]-based ABS, 20 wt% IL + 50 wt% PPG400, TLL 101.43, volume ratio 0.50, 25 °C", "value": "92.31 ± 2.31% and 90%"}, {"measurement": "increase in RE by increasing the TLL", "setting": "[1]; [Ch][DHP]/PPG400 ABS", "value": "~2", "unit": "%"}, {"measurement": "recovery efficiency (RE) toward the IL-rich phase", "setting": "[1]; [7]", "value": "88.7 ± 3.91", "unit": "%"}, {"measurement": "recovery efficiency from grape stem extract towards the [Ch][DHP] phase", "setting": "[2]", "value": 78.64, "unit": "%"}, {"measurement": "recovery efficiency from grape stem extract towards the [Ch][DHP] phase", "setting": "[2]; listed as gallic acid", "value": 78, "unit": "%"}, {"measurement": "solubility at 12 h", "setting": "[3]; [Ch][DHP]/water 50:50, aqueous with cosolvent or surfactant or cyclodextrin, around 50 wt% [Ch][DHP] in water, 25 °C, read-out: maximal solubility in the [Ch][DHP]-rich phase", "value": 140, "unit": "mg/mL"}, {"measurement": "solubility in water", "setting": "[4]; no reference and method not given", "value": 14.38, "unit": "mg/mL"}, {"measurement": "degradation", "setting": "[5]; at 100 °C", "value": 30, "unit": "%"}, {"measurement": "temperature from which degradation begins", "setting": "[5]", "value": 60, "unit": "°C"}]}
{"compound": "COc1cc(/C=C/C(=O)O)ccc1O", "note": "[ferulic acid]", "values": [{"measurement": "yield in the surfactant-rich phase", "setting": "[6]", "value": "over 90%"}]}
{"compound": "O=C(O)/C=C/c1ccc(O)cc1", "note": "[p-coumaric acid]", "values": [{"measurement": "yield in the surfactant-rich phase", "setting": "[6]", "value": "over 90%"}]}
{"compound": "Oc1ccc(/C=C/c2cc(O)cc(O)c2)cc1", "note": "[RSV, trans-resveratrol]", "values": [{"measurement": "increase in RE by increasing the TLL", "setting": "[1]; [Ch][DHP]/PPG400 ABS", "value": "circa 7%"}, {"measurement": "solubility at 12 h", "setting": "[3]; PPG400/water 80:20 (v/v), aqueous with cosolvent or surfactant or cyclodextrin, PPG400/water 80:20, 25 °C, not the maximum solubility, read-out: solubility in PPG/water system matching the PPG phase", "value": "≥ 100", "unit": "mg/mL"}, {"measurement": "solubility in pure water", "setting": "[4]", "value": 0.039, "unit": "mg/mL"}]}
{"compound": "O=c1c(O)c(-c2ccc(O)c(O)c2)oc2cc(O)cc(O)c12", "note": "[QC, quercetin]", "values": [{"measurement": "selectivity SGA/QC (DGA/DQC)", "setting": "[1]; [Ch][DHP]-based ABS, 25 °C", "value": "> 1000"}, {"measurement": "increase in RE by increasing the TLL", "setting": "[1]; [Ch][DHP]/PPG400 ABS", "value": "~9", "unit": "%"}, {"measurement": "recovery efficiency (RE) toward the PPG-rich phase", "setting": "[1]; [7]", "value": "55.70 ± 2.13", "unit": "%"}]}
